# Tested on: caecal microbiota cultures
# Test: 16S sequencing of total (DNA) and active (cDNA) community in caecal microbiota cultures, BBR vs Control
# Format: cell-based, broiler chicken
# Settings: 48 h; for L2FC BBRRNA vs ControlRNA: active (cDNA) community; for L2FC BBRRNA vs BBRDNA: active vs total community in BBR group; for L2FC BBRDNA vs ControlDNA: total (DNA) community
# [1] = OTU 563086 ([Ruminococcus] torques group)
# [2] = OTU 574038 (uncultured Lachnospiraceae)
# [3] = OTU 579244 (Ruminiclostridium 9)
# [4] = OTU 592616 (Erysipelatoclostridium)
# [5] = OTU 647215 (uncultured Ruminococcaceae)
# [6] = OTU 843454 (Family_Lachnospiraceae)
# [7] = OTU 1094991 (Ruminococcaceae UCG-005)
# [8] = OTU 2265722 (uncultured Lachnospiraceae)
# [9] = OTU 4404181 (uncultured Ruminococcaceae)
# [10] = OTU New.CleanUp.ReferenceOTU4902 (Erysipelatoclostridium)
# [11] = OTU New.ReferenceOTU85 (Anaerofilum)
# [12] = OTU New.ReferenceOTU111 (Lachnospiraceae UCG-010)
# [13] = OTU New.ReferenceOTU118 (Erysipelatoclostridium)
# [14] = OTU New.ReferenceOTU144 (Erysipelatoclostridium)
# [15] = OTU New.ReferenceOTU364 (Streptococcus)
# [16] = OTU New.ReferenceOTU377 (uncultured Ruminococcaceae)
# [17] = OTU New.ReferenceOTU392 (Intestinimonas)
# [18] = OTU New.ReferenceOTU395 (Ruminiclostridium 9)
# [19] = OTU New.ReferenceOTU429 (Erysipelatoclostridium)
# [20] = OTU New.ReferenceOTU462 (Erysipelatoclostridium)
# [21] = OTU New.ReferenceOTU476 (Escherichia-Shigella)
# [22] = OTU New.ReferenceOTU486 (Streptococcus)
# [23] = OTU New.ReferenceOTU551 (uncultured Ruminococcaceae)
smiles,measurement,setting,value
"COc1ccc2cc3[n+](cc2c1OC)CCc1cc2c(cc1-3)OCO2 [Berberine, Berberine chloride]",L2FC BBRRNA vs ControlRNA,[1],-0.24
same,L2FC BBRRNA vs BBRDNA,[1],-1.93
same,L2FC BBRDNA vs ControlDNA,[1],-0.39
same,L2FC BBRRNA vs ControlRNA,OTU 564334 (Oscillibacter),-0.38
same,L2FC BBRRNA vs BBRDNA,OTU 564334 (Oscillibacter),2.35
same,L2FC BBRDNA vs ControlDNA,OTU 564334 (Oscillibacter),-0.21
same,L2FC BBRRNA vs ControlRNA,[2],-1.65
same,L2FC BBRRNA vs BBRDNA,[2],-0.24
same,L2FC BBRDNA vs ControlDNA,[2],-2.16
same,L2FC BBRRNA vs ControlRNA,[3],-1.11
same,L2FC BBRRNA vs BBRDNA,[3],2.49
same,L2FC BBRDNA vs ControlDNA,[3],-1.32
same,L2FC BBRRNA vs ControlRNA,OTU 585227 (Oscillibacter),0.12
same,L2FC BBRRNA vs BBRDNA,OTU 585227 (Oscillibacter),2.44
same,L2FC BBRDNA vs ControlDNA,OTU 585227 (Oscillibacter),0.21
same,L2FC BBRRNA vs ControlRNA,[4],0.37
same,L2FC BBRRNA vs BBRDNA,[4],1.49
same,L2FC BBRDNA vs ControlDNA,[4],0.67
same,L2FC BBRRNA vs ControlRNA,[5],0.58
same,L2FC BBRRNA vs BBRDNA,[5],2.24
same,L2FC BBRDNA vs ControlDNA,[5],0.49
same,L2FC BBRRNA vs ControlRNA,OTU 813944 (Lactobacillus),1.85
same,L2FC BBRRNA vs BBRDNA,OTU 813944 (Lactobacillus),1.33
same,L2FC BBRDNA vs ControlDNA,OTU 813944 (Lactobacillus),1.53
same,L2FC BBRRNA vs ControlRNA,OTU 842786 (Intestinimonas),-0.59
same,L2FC BBRRNA vs BBRDNA,OTU 842786 (Intestinimonas),2.24
same,L2FC BBRDNA vs ControlDNA,OTU 842786 (Intestinimonas),-0.09
same,L2FC BBRRNA vs ControlRNA,[6],0.55
same,L2FC BBRRNA vs BBRDNA,[6],-1.17
same,L2FC BBRDNA vs ControlDNA,[6],-0.19
same,L2FC BBRRNA vs ControlRNA,OTU 847728 (Ruminococcus 2),-0.72
same,L2FC BBRRNA vs BBRDNA,OTU 847728 (Ruminococcus 2),1.54
same,L2FC BBRDNA vs ControlDNA,OTU 847728 (Ruminococcus 2),-0.88
same,L2FC BBRRNA vs ControlRNA,[7],-1.26
same,L2FC BBRRNA vs BBRDNA,[7],1.01
same,L2FC BBRDNA vs ControlDNA,[7],-1.67
same,L2FC BBRRNA vs ControlRNA,OTU 1107057 (Anaerostipes),-0.90
same,L2FC BBRRNA vs BBRDNA,OTU 1107057 (Anaerostipes),-2.55
same,L2FC BBRDNA vs ControlDNA,OTU 1107057 (Anaerostipes),-1.14
same,L2FC BBRRNA vs ControlRNA,OTU 1132942 (Butyricicoccus),0.64
same,L2FC BBRRNA vs BBRDNA,OTU 1132942 (Butyricicoccus),-3.15
same,L2FC BBRDNA vs ControlDNA,OTU 1132942 (Butyricicoccus),0.37
same,L2FC BBRRNA vs ControlRNA,[8],2.76
same,L2FC BBRRNA vs BBRDNA,[8],-0.46
same,L2FC BBRDNA vs ControlDNA,[8],1.22
same,L2FC BBRRNA vs ControlRNA,[9],0.08
same,L2FC BBRRNA vs BBRDNA,[9],-1.72
same,L2FC BBRDNA vs ControlDNA,[9],0.40
same,L2FC BBRRNA vs ControlRNA,[10],-2.19
same,L2FC BBRRNA vs BBRDNA,[10],-0.05
same,L2FC BBRDNA vs ControlDNA,[10],-1.03
same,L2FC BBRRNA vs ControlRNA,[11],-1.45
same,L2FC BBRRNA vs BBRDNA,[11],-0.84
same,L2FC BBRDNA vs ControlDNA,[11],-1.62
same,L2FC BBRRNA vs ControlRNA,[12],-1.27
same,L2FC BBRRNA vs BBRDNA,[12],-1.92
same,L2FC BBRDNA vs ControlDNA,[12],-0.42
same,L2FC BBRRNA vs ControlRNA,[13],-1.90
same,L2FC BBRRNA vs BBRDNA,[13],-0.75
same,L2FC BBRDNA vs ControlDNA,[13],-0.82
same,L2FC BBRRNA vs ControlRNA,[14],0.42
same,L2FC BBRRNA vs BBRDNA,[14],1.64
same,L2FC BBRDNA vs ControlDNA,[14],0.55
same,L2FC BBRRNA vs ControlRNA,[15],-0.92
same,L2FC BBRRNA vs BBRDNA,[15],-0.91
same,L2FC BBRDNA vs ControlDNA,[15],-1.70
same,L2FC BBRRNA vs ControlRNA,[16],-0.22
same,L2FC BBRRNA vs BBRDNA,[16],1.91
same,L2FC BBRDNA vs ControlDNA,[16],-0.81
same,L2FC BBRRNA vs ControlRNA,[17],-0.28
same,L2FC BBRRNA vs BBRDNA,[17],1.69
same,L2FC BBRDNA vs ControlDNA,[17],-0.31
same,L2FC BBRRNA vs ControlRNA,[18],-1.01
same,L2FC BBRRNA vs BBRDNA,[18],2.37
same,L2FC BBRDNA vs ControlDNA,[18],-1.00
same,L2FC BBRRNA vs ControlRNA,[19],0.23
same,L2FC BBRRNA vs BBRDNA,[19],1.73
same,L2FC BBRDNA vs ControlDNA,[19],0.65
same,L2FC BBRRNA vs ControlRNA,[20],-0.55
same,L2FC BBRRNA vs BBRDNA,[20],1.51
same,L2FC BBRDNA vs ControlDNA,[20],-0.78
same,L2FC BBRRNA vs ControlRNA,[21],-0.42
same,L2FC BBRRNA vs BBRDNA,[21],1.67
same,L2FC BBRDNA vs ControlDNA,[21],-0.75
same,L2FC BBRRNA vs ControlRNA,[22],-0.10
same,L2FC BBRRNA vs BBRDNA,[22],-0.33
same,L2FC BBRDNA vs ControlDNA,[22],-2.01
same,L2FC BBRRNA vs ControlRNA,[23],0.00
same,L2FC BBRRNA vs BBRDNA,[23],2.70
same,L2FC BBRDNA vs ControlDNA,[23],0.58
